Results on eleven compounds are retold here after US20260217767A1, “NOVEL A4B7 THIOETHER PEPTIDE DIMER ANTAGONISTS” (Protagonist Therapeutics, Inc., priority 2014, published 2026).

Where a SMILES comes first, the peptide text is derived from it.

The target of this assay is T1, rh integrin α4β7 (Homo sapiens, UniProt P13612+P26010).
T1 construct: purchased R&D Systems 5397-A30
T1 sequence (P13612 34-977 limits assumed): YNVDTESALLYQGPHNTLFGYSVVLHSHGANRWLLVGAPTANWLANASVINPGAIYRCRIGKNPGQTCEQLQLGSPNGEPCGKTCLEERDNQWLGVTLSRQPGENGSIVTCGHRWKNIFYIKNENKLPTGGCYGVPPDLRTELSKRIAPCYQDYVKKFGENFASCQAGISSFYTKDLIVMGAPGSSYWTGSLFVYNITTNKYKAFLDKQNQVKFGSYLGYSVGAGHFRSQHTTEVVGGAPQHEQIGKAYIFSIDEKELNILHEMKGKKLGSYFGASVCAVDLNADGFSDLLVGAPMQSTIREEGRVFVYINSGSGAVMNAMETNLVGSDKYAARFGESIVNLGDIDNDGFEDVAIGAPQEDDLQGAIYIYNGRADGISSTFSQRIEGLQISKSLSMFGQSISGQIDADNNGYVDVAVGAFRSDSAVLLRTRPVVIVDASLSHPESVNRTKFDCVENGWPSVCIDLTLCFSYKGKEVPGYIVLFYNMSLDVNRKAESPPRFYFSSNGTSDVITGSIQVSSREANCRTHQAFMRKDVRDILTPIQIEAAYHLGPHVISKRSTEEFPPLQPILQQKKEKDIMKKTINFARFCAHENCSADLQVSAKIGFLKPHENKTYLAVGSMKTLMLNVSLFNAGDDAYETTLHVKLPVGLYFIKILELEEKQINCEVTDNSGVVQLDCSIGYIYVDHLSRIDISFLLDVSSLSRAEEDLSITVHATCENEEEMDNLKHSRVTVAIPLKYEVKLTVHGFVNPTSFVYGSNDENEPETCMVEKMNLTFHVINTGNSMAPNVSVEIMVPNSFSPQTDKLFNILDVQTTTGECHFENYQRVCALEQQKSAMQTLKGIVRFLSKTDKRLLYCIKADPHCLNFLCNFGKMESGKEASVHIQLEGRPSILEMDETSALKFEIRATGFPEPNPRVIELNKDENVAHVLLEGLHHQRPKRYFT
T1 sequence (P26010 20-723 limits assumed): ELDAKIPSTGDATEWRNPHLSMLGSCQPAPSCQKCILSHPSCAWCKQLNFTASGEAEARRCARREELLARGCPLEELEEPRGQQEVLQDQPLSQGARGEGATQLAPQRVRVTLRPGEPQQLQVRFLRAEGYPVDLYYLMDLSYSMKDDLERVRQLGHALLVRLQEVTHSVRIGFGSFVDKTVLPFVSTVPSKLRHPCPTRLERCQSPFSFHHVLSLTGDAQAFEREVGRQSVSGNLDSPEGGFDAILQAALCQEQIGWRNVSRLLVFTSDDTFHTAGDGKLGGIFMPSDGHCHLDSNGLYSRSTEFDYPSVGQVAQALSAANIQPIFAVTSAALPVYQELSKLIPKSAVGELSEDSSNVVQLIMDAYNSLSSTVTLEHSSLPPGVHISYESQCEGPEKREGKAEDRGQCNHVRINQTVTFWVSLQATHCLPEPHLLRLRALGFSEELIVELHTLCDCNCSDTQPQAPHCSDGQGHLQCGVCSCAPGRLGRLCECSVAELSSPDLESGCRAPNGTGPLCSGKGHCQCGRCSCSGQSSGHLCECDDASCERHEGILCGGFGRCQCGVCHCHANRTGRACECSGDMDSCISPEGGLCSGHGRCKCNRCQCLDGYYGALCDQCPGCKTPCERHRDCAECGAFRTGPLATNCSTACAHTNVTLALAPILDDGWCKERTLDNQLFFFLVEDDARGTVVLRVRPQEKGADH
As to the kind of experiment: α4β7-MAdCAM Competition ELISA. Particulars: thioether monomer peptides, Table 6; read-out: ELISA A4B7. The format is binding. Here is the method:
α4β7-MAdCAM Competition ELISA A nickel coated plate (Pierce #15442) was coated with rh integrin α4β[…] Systems #5397-A30) at 800 ng/well and incubated at room temperature with shaking for 1 hr. The solution was then removed by shaking and blocked with assay buffer (50 mM Tris-HCl pH7.6, 150 mM NaCl, 1 mM MnCl2 or MgCl2, 0.05% Tween-20 and 0.5% BSA) at 250 ul/well. The plate was then incubated at room temperature for 1 hr. Each well was washed 3 times with wash buffer (50 mM Tris-HCl pH7.6, 100 mM NaCl, 1 mM MnCl2 or MgCl2, 0.05% Tween-20). To each well was added 25 ul of a serial dilution (3-fold dilutions in assay buffer) of peptides starting at 20 μM. 25 ul of recombinant human MAdCAM-1 (R&D Systems #6056-MC) was then added to each well at a fixed concentration 20 nM. The final starting peptide concentration was 10 μM, and the final MAdCAM-1 concentration was 10 nM. The plates were then incubated at room temperature for 1 hr to reach binding equilibrium. The wells were then washed three times with wash buffer. 50 ul of mouse anti-human IgG1-HRP (Invitrogen #A10648) diluted in 1:2000 in assay buffer was then added to each well. The wells were incubated at room temperature for 45 min with shaking. The wells were then washed 3 times with wash buffer. 100 ul of TMB were then added to each well and closely observe during development time. The reaction was stopped with 2N H2SO4 and absorbance was read at 450 nm.
(ELISA stands for enzyme-linked immunosorbent assay.)

On to `CC(C)C[C@@H]1NC(=O)[C@H]([C@@H](C)O)NC(=O)[C@H](CC(=O)O)NC(=O)[C@H](CO)NC(=O)[C@H](CCCNC(=N)N)N(C)C(=O)C(C)SC(C)(C)[C@@H](C(=O)N[C@@H](Cc2c[nH]c3ccccc23)C(=O)N[C@H](CCCCN)C(N)=O)NC1=O` (single isomer, unassigned) [compound 54], for which the IC50 is more than 1000 nM.

For the compound `CC(C)C[C@@H]1NC(=O)[C@H]([C@@H](C)O)NC(=O)[C@H](CC(=O)O)NC(=O)[C@H](CO)NC(=O)[C@H](CCCNC(=N)N)N(C)C(=O)C(C)(C)SC[C@@H](C(=O)N[C@@H](Cc2c[nH]c3ccccc23)C(=O)N[C@H](CCCCN)C(N)=O)NC1=O` [compound 52], the IC50 was more than 1000 nM.

As to `CC(C)C[C@@H]1NC(=O)[C@H]([C@@H](C)O)NC(=O)[C@H](CC(=O)O)NC(=O)[C@H](CO)NC(=O)[C@H](CCCNC(=N)N)N(C)C(=O)c2ccccc2CSC(C)(C)[C@@H](C(=O)N[C@@H](Cc2ccc(O)cc2)C(=O)N[C@H](CCC(=O)O)C(=O)N[C@H](CCCCN)C(N)=O)NC1=O` [compound 79] (HELM PEPTIDE1{[meR].S.D.T.L.[Pen].Y.[dE].[dK].[am]}|CHEM1{[O=C(c1ccccc1C[*:2])[*:1]]}$PEPTIDE1,CHEM1,1:R1-1:R1|PEPTIDE1,CHEM1,6:R3-1:R2$$$V2.0), the IC50 was less than 25 nM.

With `CC(=O)NCCCC[C@@H](NC(=O)C[C@H](CCC(=O)O)NC(=O)[C@H](Cc1c[nH]c2ccccc12)NC(=O)[C@H]1NC(=O)[C@H](CC(C)C)NC(=O)[C@H]([C@@H](C)O)NC(=O)[C@H](CC(=O)O)NC(=O)[C@H](CO)NC(=O)[C@H](CCCNC(=N)N)N(C)C(=O)c2ccccc2CSC1(C)C)C(N)=O` [compound 83] (HELM PEPTIDE1{[meR].S.D.T.L.[Pen].W.[O=C(O)CC[C@@H](CC(=O)[*:2])N[*:1]].[dK].[am]}|PEPTIDE2{[ac]}|CHEM1{[O=C(c1ccccc1C[*:2])[*:1]]}$PEPTIDE1,PEPTIDE2,9:R3-1:R2|PEPTIDE1,CHEM1,1:R1-1:R1|PEPTIDE1,CHEM1,6:R3-1:R2$$$V2.0), the IC50 is less than 25 nM.

On to `CC(=O)NCCCC[C@H](C(N)=O)N(C)C(=O)[C@H](CCC(=O)O)NC(=O)[C@H](Cc1c[nH]c2ccccc12)NC(=O)[C@H]1NC(=O)[C@H](CC(C)C)NC(=O)[C@H]([C@@H](C)O)NC(=O)[C@H](CC(=O)O)NC(=O)[C@H](CO)NC(=O)[C@H](CCCNC(=N)N)N(C)C(=O)c2ccccc2CSC1(C)C` [compound 84] (HELM PEPTIDE1{[meR].S.D.T.L.[Pen].W.E.[CN([C@H](CCCCN[*:3])C(=O)[*:2])[*:1]].[am]}|PEPTIDE2{[ac]}|CHEM1{[O=C(c1ccccc1C[*:2])[*:1]]}$PEPTIDE1,PEPTIDE2,9:R3-1:R2|PEPTIDE1,CHEM1,1:R1-1:R1|PEPTIDE1,CHEM1,6:R3-1:R2$$$V2.0), for which the IC50 was less than 25 nM.

In the case of `CC(=O)NCCCC[C@@H](C(N)=O)N(C)C(=O)[C@H](Cc1ccc(O)cc1)NC(=O)[C@H](Cc1c[nH]c2ccccc12)NC(=O)[C@H]1NC(=O)[C@H](CC(C)C)NC(=O)[C@H]([C@@H](C)O)NC(=O)[C@H](CC(=O)O)NC(=O)[C@H](CO)NC(=O)[C@H](CCCNC(=N)N)N(C)C(=O)c2ccccc2CSC1(C)C` [compound 85] (HELM PEPTIDE1{[meR].S.D.T.L.[Pen].W.Y.[CN([C@@H](CCCCN[*:3])C(=O)[*:2])[*:1]].[am]}|PEPTIDE2{[ac]}|CHEM1{[O=C(c1ccccc1C[*:2])[*:1]]}$PEPTIDE1,PEPTIDE2,9:R3-1:R2|PEPTIDE1,CHEM1,1:R1-1:R1|PEPTIDE1,CHEM1,6:R3-1:R2$$$V2.0), the IC50 was less than 25 nM.

With `CCCC[C@@H]1NC(=O)[C@H]([C@@H](C)O)NC(=O)[C@H](CC(=O)O)NC(=O)[C@H](CO)NC(=O)[C@H](CCCNC(=N)N)N(C)C(=O)c2ccccc2CSC(C)(C)[C@@H](C(=O)N[C@@H](Cc2c[nH]c3ccccc23)C(=O)N[C@@H](CCC(=O)O)C(=O)N[C@H](CCCCNC(C)=O)C(N)=O)NC1=O` [compound 86] (HELM PEPTIDE1{[meR].S.D.T.[Nle].[Pen].W.E.[dK].[am]}|PEPTIDE2{[ac]}|CHEM1{[O=C(c1ccccc1C[*:2])[*:1]]}$PEPTIDE1,PEPTIDE2,9:R3-1:R2|PEPTIDE1,CHEM1,1:R1-1:R1|PEPTIDE1,CHEM1,6:R3-1:R2$$$V2.0), the IC50 was less than 25 nM.

Take `CC(=O)NCCCC[C@@H](NC(=O)[C@@H](CCC(=O)O)NC(=O)[C@H](Cc1ccccc1)NC(=O)[C@H]1NC(=O)[C@H](CC(C)C)NC(=O)[C@H]([C@@H](C)O)NC(=O)[C@H](CC(=O)O)NC(=O)[C@H](CO)NC(=O)[C@H](CCCNC(=N)N)N(C)C(=O)c2ccccc2CSC1(C)C)C(N)=O` [compound 87] (HELM PEPTIDE1{[meR].S.D.T.L.[Pen].F.[dE].[dK].[am]}|PEPTIDE2{[ac]}|CHEM1{[O=C(c1ccccc1C[*:2])[*:1]]}$PEPTIDE1,PEPTIDE2,9:R3-1:R2|PEPTIDE1,CHEM1,1:R1-1:R1|PEPTIDE1,CHEM1,6:R3-1:R2$$$V2.0): the IC50 is less than 25 nM.

In the case of `CC(=O)NCCCC[C@@H](NC(=O)[C@H](CCC(=O)O)NC(=O)[C@H](Cc1ccc(O)cc1)NC(=O)[C@H]1NC(=O)[C@H](CC(C)C)NC(=O)[C@H]([C@@H](C)O)NC(=O)[C@H](CC(=O)O)NC(=O)[C@H](CO)NC(=O)[C@H](CCCNC(=N)N)N(C)C(=O)c2ccccc2CSC1(C)C)C(N)=O` [compound 90] (HELM PEPTIDE1{[meR].S.D.T.L.[Pen].Y.E.[dK].[am]}|PEPTIDE2{[ac]}|CHEM1{[O=C(c1ccccc1C[*:2])[*:1]]}$PEPTIDE1,PEPTIDE2,9:R3-1:R2|PEPTIDE1,CHEM1,1:R1-1:R1|PEPTIDE1,CHEM1,6:R3-1:R2$$$V2.0), the IC50 is less than 25 nM.

With `CC(C)C[C@H](NC(=O)[C@@H](CCC(=O)O)NC(=O)[C@H](Cc1c[nH]c2ccccc12)NC(=O)[C@H]1NC(=O)[C@H](CC(C)C)NC(=O)[C@H]([C@@H](C)O)NC(=O)[C@H](CC(=O)O)NC(=O)[C@H](CO)NC(=O)[C@H](CCCNC(=N)N)N(C)C(=O)c2ccccc2CSC1(C)C)C(N)=O` [compound 99] (HELM PEPTIDE1{[meR].S.D.T.L.[Pen].W.[dE].L.[am]}|CHEM1{[O=C(c1ccccc1C[*:2])[*:1]]}$PEPTIDE1,CHEM1,1:R1-1:R1|PEPTIDE1,CHEM1,6:R3-1:R2$$$V2.0), the IC50 is less than 25 nM.

For `CC(C)C[C@@H]1NC(=O)[C@H]([C@@H](C)O)NC(=O)[C@H](CC(=O)O)NC(=O)[C@H](CO)NC(=O)[C@H](CCCNC(=N)N)N(C)C(=O)c2ccccc2CSC(C)(C)[C@@H](C(=O)N[C@@H](Cc2c[nH]c3ccccc23)C(=O)N[C@H](CCC(=O)O)C(=O)N[C@@H](CCC(N)=O)C(N)=O)NC1=O` [compound 103] (HELM PEPTIDE1{[meR].S.D.T.L.[Pen].W.[dE].Q.[am]}|CHEM1{[O=C(c1ccccc1C[*:2])[*:1]]}$PEPTIDE1,CHEM1,1:R1-1:R1|PEPTIDE1,CHEM1,6:R3-1:R2$$$V2.0), the IC50 is less than 25 nM.
